Laboratory results from ChEMBL document CHEMBL1150678, “Bioactive sterols from the starfish Certonardoa semiregularis” (2003).
In brackets after ≈: the same amount, converted by molar mass.

How the values were obtained:
Staphylococcus aureus [1] = experiment: Antimicrobial activity against Staphylococcus aureus SG511 isolate after 18 hrs; type: functional
Enterococcus faecium = experiment: Antimicrobial activity against Streptococcus faecium MD8b isolate after 18 hrs; type: functional
Escherichia coli [2] = experiment: Antimicrobial activity against Escherichia coli DC2 isolate after 18 hrs; type: functional
Klebsiella aerogenes = experiment: Antimicrobial activity against Klebsiella aerogenes 1522E after 18 hrs; type: functional
Escherichia coli [3] = experiment: Antimicrobial activity against Escherichia coli TEM isolate after 18 hrs; type: functional
Streptococcus pyogenes [4] = experiment: Antimicrobial activity against Streptococcus pyogenes 77A isolate after 18 hrs; type: functional
Enterobacter cloacae [5] = experiment: Antimicrobial activity against Enterobacter cloacae 1321E after 18 hrs; type: functional
HCT-15 = experiment: Cytotoxicity against human HCT15 cells; type: functional; conditions: read-out: ED50 (the source's name)
Pseudomonas aeruginosa [6] = experiment: Antimicrobial activity against Pseudomonas aeruginosa 9027 isolate after 18 hrs; type: functional
A549 = experiment: Cytotoxicity against human A549 cells; type: functional; conditions: read-out: ED50 (the source's name)
Staphylococcus aureus [7] = experiment: Antimicrobial activity against Staphylococcus aureus 285 isolate after 18 hrs; type: functional
Escherichia coli [8] = experiment: Antimicrobial activity against Escherichia coli 078 isolate after 18 hrs; type: functional
Enterobacter cloacae [9] = experiment: Antimicrobial activity against Enterobacter cloacae P99 after 18 hrs; type: functional
Escherichia coli [10] = experiment: Antimicrobial activity against Escherichia coli 1507E isolate after 18 hrs; type: functional
Pseudomonas aeruginosa [11] = experiment: Antimicrobial activity against Pseudomonas aeruginosa 1771M isolate after 18 hrs; type: functional
Streptococcus pyogenes [12] = experiment: Antimicrobial activity against Streptococcus pyogenes 308A isolate after 18 hrs; type: functional
Salmonella typhimurium = experiment: Antimicrobial activity against Salmonella Typhimurium after 18 hrs; type: functional, Salmonella enterica subsp. enterica serovar Typhimurium; conditions: Salmonella enterica
Staphylococcus aureus [13] = experiment: Antimicrobial activity against Staphylococcus aureus 503 isolate after 18 hrs; type: functional
Escherichia coli [14] = experiment: Antimicrobial activity against Escherichia coli DC0 isolate after 18 hrs; type: functional
SK-MEL-2 = experiment: Cytotoxicity against human SK-MEL-2 cells; type: functional; conditions: read-out: ED50 (the source's name)
Pseudomonas aeruginosa [15] = experiment: Antimicrobial activity against Pseudomonas aeruginosa 1771 isolate after 18 hrs; type: functional
XF498 = experiment: Cytotoxicity against human XF498 cells; type: functional; conditions: read-out: ED50 (the source's name)
Pseudomonas aeruginosa [16] = experiment: Antimicrobial activity against Pseudomonas aeruginosa 1592E isolate after 18 hrs; type: functional
SK-OV-3 = experiment: Cytotoxicity against human SKOV3 cells; type: functional; conditions: read-out: ED50 (the source's name)
Klebsiella oxytoca = experiment: Antimicrobial activity against Klebsiella oxytoca 1082E after 18 hrs; type: functional

Row | SMILES | MIC (Staphylococcus aureus [1]) [µg/mL] | MIC (Enterococcus faecium) [µg/mL] | MIC (Escherichia coli [2]) [µg/mL] | MIC (Klebsiella aerogenes) [µg/mL] | MIC (Escherichia coli [3]) [µg/mL] | MIC (Streptococcus pyogenes [4]) [µg/mL] | MIC (Enterobacter cloacae [5]) [µg/mL] | EC50 (HCT-15) [µg/mL] | MIC (Pseudomonas aeruginosa [6]) [µg/mL] | EC50 (A549) [µg/mL] | MIC (Staphylococcus aureus [7]) [µg/mL] | MIC (Escherichia coli [8]) [µg/mL] | MIC (Enterobacter cloacae [9]) [µg/mL] | MIC (Escherichia coli [10]) [µg/mL] | MIC (Pseudomonas aeruginosa [11]) [µg/mL] | MIC (Streptococcus pyogenes [12]) [µg/mL] | MIC (Salmonella typhimurium) [µg/mL] | MIC (Staphylococcus aureus [13]) [µg/mL] | MIC (Escherichia coli [14]) [µg/mL] | EC50 (SK-MEL-2) [µg/mL] | also measured
1 | CC(/C=C/[C@@H](C)[C@H]1C[C@@H](O)[C@H]2[C@@H]3C[C@H](O)[C@H]4C[C@@H](O)CC[C@]4(C)[C@H]3CC[C@@]21C)CO (stereo not given in full) [CERTONARDOSTEROL H] | > 25 | > 25 | > 25 | > 25 | > 25 | > 25 | > 25 | 10.6 (≈ 25.2 µM) | > 25 | 7.1 (≈ 16.9 µM) | > 25 | > 25 | > 25 | > 25 | 25 (≈ 59.4 µM) | 25 (≈ 59.4 µM) | > 25 | > 25 | > 25 | 6.4 (≈ 15.2 µM) | MIC (Pseudomonas aeruginosa [15]): 25 µg/mL (≈ 59.4 µM); EC50 (XF498): 8.6 µg/mL (≈ 20.4 µM); MIC (Pseudomonas aeruginosa [16]): > 25 µg/mL; EC50 (SK-OV-3): 9.4 µg/mL (≈ 22.3 µM); MIC (Klebsiella oxytoca): > 25 µg/mL
2 | C/C(=C\[C@@H](C)[C@H]1C[C@@H](O)[C@@H]2[C@]1(C)CC[C@@H]1[C@@]3(C)CC[C@H](O)C[C@@H]3[C@@H](O)C[C@]12O)[C@H](C)[C@@H](C)CO [CERTONARDOSTEROL I] | > 25 | > 25 | > 25 | > 25 | > 25 | 25 (≈ 52.2 µM) | > 25 | 6.3 (≈ 13.2 µM) | > 25 | 5.1 (≈ 10.7 µM) | > 25 | > 25 | > 25 | > 25 | 25 (≈ 52.2 µM) | 25 (≈ 52.2 µM) | > 25 | > 25 | > 25 | 5.3 (≈ 11.1 µM) | MIC (Pseudomonas aeruginosa [15]): 12.5 µg/mL (≈ 26.1 µM); EC50 (XF498): 7.3 µg/mL (≈ 15.2 µM); MIC (Pseudomonas aeruginosa [16]): > 25 µg/mL; EC50 (SK-OV-3): 8.8 µg/mL (≈ 18.4 µM); MIC (Klebsiella oxytoca): > 25 µg/mL
3 | C/C(=C\[C@@H](C)[C@H]1C[C@@H](O)[C@H]2[C@@H]3C[C@H](O)[C@H]4C[C@@H](O)CC[C@]4(C)[C@H]3CC[C@@]21C)[C@H](C)[C@@H](C)CO [CERTONARDOSTEROL J] | > 25 | > 25 | > 25 | > 25 | > 25 | 25 (≈ 54 µM) | > 25 | 12.5 (≈ 27 µM) | > 25 | 8 (≈ 17.3 µM) | > 25 | > 25 | > 25 | > 25 | 25 (≈ 54 µM) | 25 (≈ 54 µM) | > 25 | > 25 | > 25 | 7.1 (≈ 15.3 µM) | MIC (Pseudomonas aeruginosa [15]): 12.5 µg/mL (≈ 27 µM); EC50 (XF498): 11.4 µg/mL (≈ 24.6 µM); MIC (Pseudomonas aeruginosa [16]): > 25 µg/mL; EC50 (SK-OV-3): 10.3 µg/mL (≈ 22.3 µM); MIC (Klebsiella oxytoca): > 25 µg/mL
